In one assay the target is human mGluR5a receptors (Homo sapiens (Human), UniProt P41594). The assay is described as follows: inhibition of glutamate-induced elevation of intracellular calcium in L(tk-) cells expressing human mGluR5a. To be noted: for IC50: glutamate-induced intracellular calcium elevation, L(tk-) cells expressing human mGluR5a, read-out: mGluR5 IC50; for inhibition at 2 µM: LTK, read-out: mGluR5 % inhibition at 2 μM. The class given is cell-based. In a few lines:
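Compounds tested for inhibition of the glutamate-induced rise in intracellular calcium concentration in L(tk-) cells stably expressing human mGluR5a.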
In general terms: A change in cytosolic calcium serves as a functional read-out for many receptors and channels.

In another assay the target is human mGluR1 (Homo sapiens (Human), UniProt Q13255). The assay is described as follows: mGluR1 antagonism, L-glutamate induced intracellular calcium increase (FLIPR) in CHO cells stably expressing human mGluR1. The class given is cell-based. To be noted: L-glutamate induced intracellular calcium, CHO cells expressing human mGluR1, FLIPR.
Sequence of human mGluR1 (Q13255 19-1194): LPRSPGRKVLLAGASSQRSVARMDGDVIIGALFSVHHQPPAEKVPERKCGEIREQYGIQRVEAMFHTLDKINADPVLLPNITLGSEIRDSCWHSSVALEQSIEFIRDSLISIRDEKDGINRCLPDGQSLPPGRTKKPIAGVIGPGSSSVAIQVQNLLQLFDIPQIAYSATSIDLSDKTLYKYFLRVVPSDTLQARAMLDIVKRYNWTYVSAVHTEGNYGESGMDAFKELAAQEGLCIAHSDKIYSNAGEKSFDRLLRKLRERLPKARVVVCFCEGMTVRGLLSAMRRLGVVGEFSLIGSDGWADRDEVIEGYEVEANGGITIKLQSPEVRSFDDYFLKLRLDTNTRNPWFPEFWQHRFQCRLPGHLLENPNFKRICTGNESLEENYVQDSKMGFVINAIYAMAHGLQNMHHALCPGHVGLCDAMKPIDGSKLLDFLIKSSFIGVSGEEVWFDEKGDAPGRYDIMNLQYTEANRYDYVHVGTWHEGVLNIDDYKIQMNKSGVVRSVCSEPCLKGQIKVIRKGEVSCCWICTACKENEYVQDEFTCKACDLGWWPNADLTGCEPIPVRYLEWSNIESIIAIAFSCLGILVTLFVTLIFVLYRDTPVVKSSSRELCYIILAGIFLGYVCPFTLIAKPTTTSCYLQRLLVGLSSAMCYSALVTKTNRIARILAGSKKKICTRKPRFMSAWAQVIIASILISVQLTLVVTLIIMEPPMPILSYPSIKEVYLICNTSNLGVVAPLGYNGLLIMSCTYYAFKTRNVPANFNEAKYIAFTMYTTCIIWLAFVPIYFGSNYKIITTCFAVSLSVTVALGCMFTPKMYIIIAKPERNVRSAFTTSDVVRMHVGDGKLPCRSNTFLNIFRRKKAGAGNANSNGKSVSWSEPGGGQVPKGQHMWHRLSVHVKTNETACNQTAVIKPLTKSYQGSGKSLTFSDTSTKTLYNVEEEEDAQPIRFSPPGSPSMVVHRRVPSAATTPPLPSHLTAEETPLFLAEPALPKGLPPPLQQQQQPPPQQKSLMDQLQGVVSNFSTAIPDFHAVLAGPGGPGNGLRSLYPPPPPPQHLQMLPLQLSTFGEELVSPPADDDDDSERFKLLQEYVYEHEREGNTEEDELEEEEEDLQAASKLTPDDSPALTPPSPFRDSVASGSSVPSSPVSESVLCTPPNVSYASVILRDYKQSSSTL

Sequence of human mGluR5a receptors (P41594 other isoform, or with tags, fused parts or gaps): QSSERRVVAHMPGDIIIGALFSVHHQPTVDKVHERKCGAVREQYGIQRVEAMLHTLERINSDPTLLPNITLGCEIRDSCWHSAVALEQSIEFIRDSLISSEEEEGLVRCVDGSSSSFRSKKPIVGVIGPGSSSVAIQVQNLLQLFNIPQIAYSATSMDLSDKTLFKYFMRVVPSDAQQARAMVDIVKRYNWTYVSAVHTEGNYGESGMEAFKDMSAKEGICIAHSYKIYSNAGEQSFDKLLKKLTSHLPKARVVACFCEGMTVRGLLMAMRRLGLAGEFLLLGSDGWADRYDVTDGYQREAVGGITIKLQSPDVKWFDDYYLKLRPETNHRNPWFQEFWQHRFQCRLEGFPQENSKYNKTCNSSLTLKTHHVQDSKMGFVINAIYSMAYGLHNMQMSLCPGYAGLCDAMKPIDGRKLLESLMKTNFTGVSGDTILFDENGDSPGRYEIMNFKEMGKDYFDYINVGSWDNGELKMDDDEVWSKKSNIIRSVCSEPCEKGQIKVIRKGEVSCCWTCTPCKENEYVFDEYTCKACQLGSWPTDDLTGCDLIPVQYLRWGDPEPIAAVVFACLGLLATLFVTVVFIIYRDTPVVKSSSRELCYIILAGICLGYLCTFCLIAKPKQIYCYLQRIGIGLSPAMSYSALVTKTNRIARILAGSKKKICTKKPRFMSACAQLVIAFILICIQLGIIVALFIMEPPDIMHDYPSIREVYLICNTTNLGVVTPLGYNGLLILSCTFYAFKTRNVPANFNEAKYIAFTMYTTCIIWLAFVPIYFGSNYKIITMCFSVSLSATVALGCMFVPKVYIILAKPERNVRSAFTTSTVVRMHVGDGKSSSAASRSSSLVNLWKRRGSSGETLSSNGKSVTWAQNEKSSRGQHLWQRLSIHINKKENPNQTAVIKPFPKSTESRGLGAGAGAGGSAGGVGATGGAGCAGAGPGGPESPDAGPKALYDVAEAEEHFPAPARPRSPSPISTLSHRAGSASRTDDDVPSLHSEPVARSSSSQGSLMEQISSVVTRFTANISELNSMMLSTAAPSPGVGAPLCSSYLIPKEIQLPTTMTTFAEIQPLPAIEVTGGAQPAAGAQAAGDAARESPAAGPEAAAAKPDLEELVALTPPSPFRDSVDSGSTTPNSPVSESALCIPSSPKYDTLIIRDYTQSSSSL

`O=C1CN=C(n2cnc(-c3ncco3)c2)C=C2c3cccc(-c4cccnc4F)c3CCN12` [Example 106, 9-(2-fluoropyridin-3-yl)-2-(4-(oxazol-2-yl)-1H-imidazol-1-yl)-7,8-dihydro-[1,4]diazepino[7,1-a]isoquinolin-5(4H)-one]: the IC50 (in general, the concentration that gives 50% inhibition) on human mGluR5a receptors was 182 nM; at human mGluR1, greater than 10000 nM.
Consider `COC1(c2cn(C3=NCC(=O)N4CCc5c(cccc5-c5ccc(F)nc5)C4=C3)cn2)CC1` [Example 106a, 9-(6-fluoropyridin-3-yl)-2-(4-(1-methoxycyclopropyl)-1H-imidazol-1-yl)-7,8-dihydro-[1,4]diazepino[7,1-a]isoquinolin-5(4H)-one], for which the concentration for half-maximal inhibition (IC50) on human mGluR5a receptors was 68 nM; on human mGluR1, greater than 10000 nM.
`Cc1cn(C2=NCC(=O)N3CCc4c(cccc4-c4cnccn4)C3=C2)cn1` [Example 106b, 2-(4-methyl-1H-imidazol-1-yl)-9-(pyrazin-2-yl)-7,8-dihydro-[1,4]diazepino[7,1-a]isoquinolin-5(4H)-one]: the IC50 on human mGluR5a receptors worked out at 168 nM; on human mGluR1, 7330 nM.
On the same counts, the results for `O=C1CN=C(n2cnc(C3(O)COC3)c2)C=C2c3cccc(-c4ccc(F)nc4)c3CCN12` [Example 106c, 9-(6-fluoropyridin-3-yl)-2-(4-(3-hydroxyoxetan-3-yl)-1H-imidazol-1-yl)-7,8-dihydro-[1,4]diazepino[7,1-a]isoquinolin-5(4H)-one] are 1090 nM and greater than 10000 nM.
For `CC1=C2c3cccc(-c4cc(C)no4)c3CCN2C(=O)CN=C1n1cnc(C2CC2)c1` [Example 107, 2-(4-cyclopropyl-1H-imidazol-1-yl)-1-methyl-9-(3-methylisoxazol-5-yl)-7,8-dihydro-[1,4]diazepino[7,1-a]isoquinolin-5(4H)-one], the IC50 was 835 nM on human mGluR5a receptors and greater than 10000 nM at human mGluR1.
For `Cc1nc(-c2cccc3c2CCN2C(=O)CN=C(n4cnc(C5CC5)c4)C=C32)co1` [Example 108, 2-(4-cyclopropyl-1H-imidazol-1-yl)-9-(2-methyloxazol-4-yl)-7,8-dihydro-[1,4]diazepino[7,1-a]isoquinolin-5(4H)-one], in that order: 18 nM and 3300 nM.
On the same counts, the results for `Cc1nc(-c2cccc3c2CCN2C(=O)CN=C(n4cnc(C5CC5)n4)C=C32)co1` [Example 108a, 2-(3-cyclopropyl-1H-1,2,4-triazol-1-yl)-9-(2-methyloxazol-4-yl)-7,8-dihydro-[1,4]diazepino[7,1-a]isoquinolin-5(4H)-one] are 91 nM and greater than 10000 nM.
For the molecule `Cc1cn(C2=NCC(=O)N3CCc4c(cccc4-c4coc(C)n4)C3=C2)cn1` [Example 108c, 2-(4-methyl-1H-imidazol-1-yl)-9-(2-methyloxazol-4-yl)-7,8-dihydro-[1,4]diazepino[7,1-a]isoquinolin-5(4H)-one], the IC50 on human mGluR5a receptors was 115 nM; at human mGluR1, greater than 10000 nM.
For `O=C1CN=C(n2cnc(C3CC3)c2)C=C2c3cccc(-c4cnco4)c3CCN12` [Example 109, 2-(4-cyclopropyl-1H-imidazol-1-yl)-9-(oxazol-5-yl)-7,8-dihydro-[1,4]diazepino[7,1-a]isoquinolin-5(4H)-one], in that order: 10 nM and 1800 nM.
On the same counts, the results for `O=C1CN=C(n2cnc(C3CC3)c2)C=C2c3ccnc(-c4ccc(F)nc4)c3CCN12` [Example 110, 2-(4-cyclopropyl-1H-imidazol-1-yl)-9-(6-fluoropyridin-3-yl)-7,8-dihydro-[1,4]diazepino[7,1-a][2,6]naphthyridin-5(4H)-one] are 270 nM and greater than 10000 nM.
Regarding `O=C1CN=C(n2cnc(C3CC3)c2)C=C2c3ccnc(C4CC4)c3CCN12` [Example 110a, 9-cyclopropyl-2-(4-cyclopropyl-1H-imidazol-1-yl)-7,8-dihydro-[1,4]diazepino[7,1-a][2,6]naphthyridin-5(4H)-one], the half-inhibitory concentration (IC50) at human mGluR5a receptors was 328 nM; on human mGluR1, greater than 2000 nM.
For `O=C1CN=C(n2cnc(C3CC3)n2)C=C2c3ccnc(C4CC4)c3CCN12` [Example 110b, 9-cyclopropyl-2-(3-cyclopropyl-1H-1,2,4-triazol-1-yl)-7,8-dihydro-[1,4]diazepino[7,1-a][2,6]naphthyridin-5(4H)-one], in that order: 758 nM and greater than 10000 nM.
For `CO[C@H](C)c1cn(C2=NCC(=O)N3CCc4c(ccnc4C4CC4)C3=C2)cn1` [Example 110c, (R)-9-cyclopropyl-2-(4-(1-methoxyethyl)-1H-imidazol-1-yl)-7,8-dihydro-[1,4]diazepino[7,1-a][2,6]naphthyridin-5(4H)-one], the inhibition (as a rule, the relative decrease from the control value, in per cent) at 2 µM at human mGluR5a receptors stood at 72%. Further, the half-maximal inhibitory concentration (IC50) at human mGluR1 is greater than 10000 nM.
As to `O=C1CN=C(n2cnc(C(F)F)c2)C=C2c3ccnc(C4CC4)c3CCN12` [Example 110d, 9-cyclopropyl-2-(4-(difluoromethyl)-1H-imidazol-1-yl)-7,8-dihydro-[1,4]diazepino[7,1-a][2,6]naphthyridin-5(4H)-one], the inhibition at 2 µM at human mGluR5a receptors was found to be 57%. In addition, the half-maximal inhibitory concentration (IC50) on human mGluR1 was greater than 10000 nM.
`CC(C)(C)c1cn(C2=NCC(=O)N3CCc4c(cccc4C4CCCO4)C3=C2)cn1` (centres unmarked) [Example 112, 2-(4-(tert-butyl)-1H-imidazol-1-yl)-9-(tetrahydrofuran-2-yl)-7,8-dihydro-[1,4]diazepino[7,1-a]isoquinolin-5(4H)-one]: the IC50 is 515 nM on human mGluR5a receptors and greater than 10000 nM at human mGluR1.
For `CCc1cn(C2=NCC(=O)N3CCc4c(cccc4C4(F)CCC4)C3=C2)cn1` [Example 113, 2-(4-ethyl-1H-imidazol-1-yl)-9-(1-fluorocyclobutyl)-7,8-dihydro-[1,4]diazepino[7,1-a]isoquinolin-5(4H)-one], in that order: 120 nM and 2300 nM.
Regarding `CCc1cn(C2=NCC(=O)N3CCc4c(cccc4C4(F)COC4)C3=C2)cn1` [Example 114, 2-(4-ethyl-1H-imidazol-1-yl)-9-(3-fluorooxetan-3-yl)-7,8-dihydro-[1,4]diazepino[7,1-a]isoquinolin-5(4H)-one], the IC50 was 1600 nM on human mGluR5a receptors and greater than 10000 nM at human mGluR1.
On the same counts, the results for `CC(=O)c1cccc2c1CCN1C(=O)CN=C(n3cnc(C)c3)C=C21` [Example 116, 9-acetyl-2-(4-methyl-1H-imidazol-1-yl)-7,8-dihydro-[1,4]diazepino[7,1-a]isoquinolin-5(4H)-one] are 410 nM and greater than 10000 nM.
For `CC(=O)c1cccc2c1CCN1C(=O)CN=C(n3cnc(C4CCC4)c3)C=C21` [Example 117, 9-acetyl-2-(4-cyclobutyl-1H-imidazol-1-yl)-7,8-dihydro-[1,4]diazepino[7,1-a]isoquinolin-5(4H)-one], in that order: 35 nM and 660 nM.
For `C=C(C)c1cccc2c1CCN1C(=O)CN=C(n3cnc([C@@H](C)OC)c3)C=C21` [Example 118, (R)-2-(4-(1-methoxyethyl)-1H-imidazol-1-yl)-9-(prop-1-en-2-yl)-7,8-dihydro-[1,4]diazepino[7,1-a]isoquinolin-5(4H)-one], in that order: 18 nM and greater than 10000 nM.
For the molecule `C=C(C)c1cccc2c1CCN1C(=O)CN=C(n3cnc([C@H](C)OC)c3)C=C21` [Example 119, (S)-2-(4-(1-methoxyethyl)-1H-imidazol-1-yl)-9-(prop-1-en-2-yl)-7,8-dihydro-[1,4]diazepino[7,1-a]isoquinolin-5(4H)-one], the half-inhibitory concentration (IC50) on human mGluR5a receptors came to 24 nM; at human mGluR1, 2600 nM.
On the same counts, the results for `COCc1cn(C2=NCC(=O)N3CCc4c(C5=CCCC5)cccc4C3=C2)cn1` [Example 120, 9-(cyclopent-1-en-1-yl)-2-(4-(methoxymethyl)-1H-imidazol-1-yl)-7,8-dihydro-[1,4]diazepino[7,1-a]isoquinolin-5(4H)-one] are 7 nM and 890 nM.
For `C=C(C)c1cccc2c1CCN1C(=O)CN=C(n3cnc(COC)c3)C=C21` [Example 121, 2-(4-(methoxymethyl)-1H-imidazol-1-yl)-9-(prop-1-en-2-yl)-7,8-dihydro-[1,4]diazepino[7,1-a]isoquinolin-5(4H)-one], the figures for the IC50 on human mGluR5a receptors and on human mGluR1 were 14 nM and 490 nM, respectively.
Take `CO[C@@H](C)c1cn(C2=NCC(=O)N3CCc4c(cccc4C4CC4)C3=C2)cn1` [Example 122, (S)-9-cyclopropyl-2-(4-(1-methoxyethyl)-1H-imidazol-1-yl)-7,8-dihydro-[1,4]diazepino[7,1-a]isoquinolin-5(4H)-one]: the half-inhibitory concentration (IC50) at human mGluR5a receptors worked out at 5 nM; on human mGluR1, 1100 nM.
On to `CO[C@H](C)c1cn(C2=NCC(=O)N3CCc4c(cccc4C4CC4)C3=C2)cn1` [Example 123, (R)-9-cyclopropyl-2-(4-(1-methoxyethyl)-1H-imidazol-1-yl)-7,8-dihydro-[1,4]diazepino[7,1-a]isoquinolin-5(4H)-one], for which the IC50 at human mGluR5a receptors came to 3 nM; on human mGluR1, 7000 nM.
On the same counts, the results for `O=C1CN=C(n2cnc(-c3cnco3)c2)C=C2c3cccc(C4CC4)c3CCN12` [Example 123a, 9-cyclopropyl-2-(4-(oxazol-5-yl)-1H-imidazol-1-yl)-7,8-dihydro-[1,4]diazepino[7,1-a]isoquinolin-5(4H)-one] are 12 nM and greater than 2000 nM.
On the same counts, the results for `O=C1CN=C(n2cnc(-c3ccno3)c2)C=C2c3cccc(C4CC4)c3CCN12` [Example 123b, 9-cyclopropyl-2-(4-(isoxazol-5-yl)-1H-imidazol-1-yl)-7,8-dihydro-[1,4]diazepino[7,1-a]isoquinolin-5(4H)-one] are 1 nM and 2340 nM.
For `O=C1CN=C(n2cnc(C3CC3)n2)C=C2c3cccc(C4CC4)c3CCN12` [Example 123c, 9-cyclopropyl-2-(3-cyclopropyl-1H-1,2,4-triazol-1-yl)-7,8-dihydro-[1,4]diazepino[7,1-a]isoquinolin-5(4H)-one], the figures for the half-maximal inhibitory concentration (IC50) on human mGluR5a receptors and at human mGluR1 were 8 nM and 226 nM, respectively.
